{
  "source": "patent US10487143B2",
  "about": "“Vaccines against HER3 antigens and methods of using the same” (Duke University, priority 2016, dated 2019)",
  "key": {"[1]": {"test_system": "HLA-A*0201-positive, but HER3-negative LNCaP cells", "assay": "Human CTL (51Cr release) assay on LNCaP target cells", "type": "cell-based", "details": "effector to target ratio 25 to 1, FIG. 2B", "procedure": "(§1) Immature human DCs (Dendritic cells) were loaded for 2 hours at 10 μM with peptides, washed and then co-cultured with untouched autologous T cells (isolated via magnetic bead-based separation) at a DC to T-cell ratio of 1:20 in complete RPMI media supplemented with 12.5 μg/mL pIC, (polyinosinic-polycytidylic acid, Sigma) and 1.0 μg/mL recombinant CD40L plus 1.0 μg/mL Enhancer (Alexis Biochemicals). 20 U/ml of recombinant human Interleukin-2 (IL-2) were added after 3 days and every other day thereafter. Cells were re-stimulated twice after 7 days (DC to T cell ratio of 1:10) and analyzed for cytolytic activity 10 days after the last re-stimulation.\n2×10^6 target cells were harvested, washed, counted, and labeled with 100 μCi of Na2^51CrO4 (Amersham) in 0.5 ml complete RPMI at 37° C. for 1.5 h. Exogenous loading of cells with 10 μM synthetic peptide was performed simultaneously with labeling reactions. CTLs (untouched CD8^+ T cells isolated via magnetic-bead-based techniques (Miltenyi Biotec)) were washed, counted, and diluted to the desired density in complete RPMI 1640 and plated in duplicate wells in a round-bottomed, 96-well plate. Target cells were washed three times, resuspended in complete RPMI and incubated at 37° C. and 5% CO2. […] Supernatants were harvested and counted in a gamma counter. Duplicate wells were averaged, and the percentage of specific lysis was calculated as: […]"}, "[2]": {"test_system": "HLA-A*0201-positive- and HER3-positive MCF-7 cells", "assay": "Human CTL (51Cr release) assay on MCF-7 target cells", "type": "cell-based", "details": "effector to target ratio 25 to 1; for killing of MCF-7 cells by peptide-induced CTL: CTL induced with peptide-loaded (10 μM) human DCs, unloaded MCF-7 targets, FIGS. 2A-2B", "procedure": "as §1\n2×10^6 target cells were harvested, washed, counted, and labeled with 100 μCi of Na2^51CrO4 (Amersham) in 0.5 ml complete RPMI at 37° C. for 1.5 h. Exogenous loading of cells with 10 μM synthetic peptide was performed simultaneously with labeling reactions. CTLs (untouched CD8^+ T cells isolated via magnetic-bead-based techniques (Miltenyi Biotec)) were washed, counted, and diluted to the desired density in complete RPMI 1640 and plated in duplicate wells in a round-bottomed, 96-well plate. Target cells were washed three times, resuspended in complete RPMI and incubated at 37° C. and 5% CO2. After 1 h, cells were washed one more time, diluted to 10^4 cells/ml and co-incubated with CTLs at indicated effector to target ratio of 25 to 1. The plates were spun briefly at 800×g and incubated for 4-5 h at 37° C. Supernatants were harvested and counted in a gamma counter. Duplicate wells were averaged, and the percentage of specific lysis was calculated as: […]"}, "[3]": {"test_system": "murine CD8+ T cells stimulated with peptide-pulsed T2 cells", "assay": "IFN-γ ELISPOT after peptide vaccination of HLA-A*0201-transgenic mice", "type": "in vivo", "details": "mice immunized with mixture of 100 μg of each peptide in PBS:Montanide ISA 51, 3 weekly vaccinations; CD8+ T cells stimulated with the same epitope on T2 cells; FIG. 1", "excerpt": "To further validate the identified HER-3-derived peptide epitopes (SEQ ID NO: 1 and SEQ ID NO: 3), we vaccinated HLA-A*0201-transgenic mice with these peptides. Female CB6F1-Tg(HLA-A*0201/H2-K^b) A*0201 mice were purchased from Charles River Laboratories (Raleigh, N.C.). These animals carry a transgene consisting of fragments of the human HLA-A*0201 gene and mouse H2-K^b gene which encodes a chimeric class I molecule consisting of the human HLA-A2.1 leader, α1 and α2 domains ligated to the murine α3, transmembrane and cytoplasmic H2-K^b domain Mice were maintained in a specific pathogen-free environment. All mice were used at 8 to 12 weeks of age. Animals were housed in a specific pathogen-free environment at the animal facility of the DUKE University Medical Center. All mice used in this study were cared for in accordance with the Guide for Humane care and use of Laboratory Animals published by the National Institutes of Health. All the animal experimental protocols were approved by the Duke University Medical Center Institutional Animal Care and Use Committee.\nMice were immunized with a mixture of 100 μg of each peptide emulsified in PBS:Montanide ISA 51 (1:1) (SEPPIC, France). […]\nELISPOT assays were performed without re-stimulation of cells. […] Spots of the dried plate were counted using an ImmunoScan ELISPOT reader (C.T.L., Cellular Technology Ltd.)."}},
  "data": [
    {"sequence": "VMVKCWMIDENI (Synthetic HER3 Antigen 3) [HER3943-954]", "values": [
      {"measurement": "killing of epitope-loaded LNCaP cells by peptide-specific CTL", "setting": "[1]; LNCaP targets loaded with 10 μM HER3943-954", "result": "Killing"},
      {"measurement": "killing of LNCaP cells by peptide-specific CTL", "setting": "[1]; unloaded HER3-negative LNCaP targets", "result": "did not kill"},
      {"measurement": "killing of MCF-7 cells by peptide-induced CTL", "setting": "[2]", "result": "killed MCF-7 cells efficiently"},
      {"measurement": "killing of epitope-loaded MCF-7 cells by peptide-induced CTL", "setting": "[2]; target cells loaded with 10 μM HER3943-954, FIG. 2B", "result": "cytolytic activity could further be enhanced"},
      {"measurement": "induction of epitope-specific CD8+ T cells producing IFN-γ (ELISPOT)", "setting": "[3]", "result": "induced epitope-specific CD8^+ T cells"}
    ]},
    {"sequence": "LAEVPDLLE (Synthetic HER3 Antigen 1) [HER3917-925]", "values": [
      {"measurement": "killing of MCF-7 cells by peptide-induced CTL", "setting": "[2]", "result": "failed to induce HERS-specific CTLs"},
      {"measurement": "induction of epitope-specific CD8+ T cells producing IFN-γ (ELISPOT)", "setting": "[3]", "result": "failed to induce CD8^+ T cells that produced IFN-γ"}
    ]}
  ]
}
